Assay results published in US20080293572A1, “Herbicidal Mixtures” (BASF SE, priority 2005, published 2008).

Tests used:
Assay in all cases: Greenhouse post-emergence herbicidal trial
ECHCG = format: in vivo, Echinochloa crus-galli; conditions: MSO or COC 1.25% where in mixture, scale 0-100
Excerpt: (§1) The culture vessels used were plastic flowerpots filled, as substrate, with sandy loam comprising about 3% of humus. The seeds of the test plants were sown separated according to species.
(§2) For the post-emergence treatment, the test plants were initially cultivated to a height of 3-17 cm according to their habit and only then treated with the active compounds, which had been suspended or emulsified in water. To this end, the test plants were either sown directly and cultivated in the same vessels, or they were initially cultivated separately as seedlings and transplanted into the test vessels a few days prior to the treatment. According to the species, the plants were kept at temperatures of from 15° C. to 25° C. or from 20 to 35° C. The trial period extended over 3 weeks. During this time the plants were tended and their response to the individual treatments was evaluated.
(§3) The application in the greenhouse was carried out at a spray liquor application rate of 200 l/ha.

PANDI = format: in vivo, Panicum dichotomiflorum; conditions: PANDI; a) 25 g/ha, MSO or COC 1.25% where in mixture, scale 0-100
Excerpt: as §1, §2, §3

SOLNI = format: in vivo, Solanum nigrum; conditions: SOLNI; a) 3.125 g/ha, MSO or COC 1.25% where in mixture, scale 0-100
Excerpt: as §1, §2, §3

AMBEL = format: in vivo, Ambrosia elatior; conditions: AMBEL; a) 3.125 g/ha, MSO or COC 1.25% where in mixture, scale 0-100
Excerpt: as §1, §2, §3

HELAN = format: in vivo, Helianthus annua; conditions: HELAN; a) 6.25 g/ha, MSO or COC 1.25% where in mixture, scale 0-100
Excerpt: as §1, §2, §3

SETVI = format: in vivo, Setaria viridis; conditions: SETVI; a) 12.5 g/ha, MSO or COC 1.25% where in mixture, scale 0-100
Excerpt: as §1, §2, §3

PANMI = format: in vivo, Panicum milliaceum; conditions: PANMI; a) 12.5 g/ha, MSO or COC 1.25% where in mixture, scale 0-100
Excerpt: as §1, §2, §3

XANST = format: in vivo, Xanthium strumarium; conditions: XANST; a) 12.5 g/ha, MSO or COC 1.25% where in mixture, scale 0-100
Excerpt: as §1, §2, §3

SORBI = format: in vivo, Sorghum bicolor; conditions: SORBI; a) 25 g/ha, MSO or COC 1.25% where in mixture, scale 0-100
Excerpt: as §1, §2, §3

## Cc1c(C(=O)c2cnn(C)c2O)ccc(S(C)(=O)=O)c1C1=NOCC1 [a)]
ECHCG; ECHCG; a) 12.5 g/ha
  observed effect: 0
ECHCG; ECHCG; a) 25 g/ha
  observed effect: 0
PANDI
  observed effect: 0
SOLNI
  observed effect: 30
AMBEL
  observed effect: 60
HELAN
  observed effect: 30
SETVI
  observed effect: 60
PANMI
  observed effect: 75
XANST
  observed effect: 65
SORBI
  observed effect: 10
